Structures can show the parent of a compound that is named as a salt.

The target in the first assay is T1, human Nav1.8 (hNav1.8) ion channel (Homo sapiens, UniProt Q9Y5Y9).
T1 construct: expressed in transfected cells
T1 sequence (Q9Y5Y9 whole entry): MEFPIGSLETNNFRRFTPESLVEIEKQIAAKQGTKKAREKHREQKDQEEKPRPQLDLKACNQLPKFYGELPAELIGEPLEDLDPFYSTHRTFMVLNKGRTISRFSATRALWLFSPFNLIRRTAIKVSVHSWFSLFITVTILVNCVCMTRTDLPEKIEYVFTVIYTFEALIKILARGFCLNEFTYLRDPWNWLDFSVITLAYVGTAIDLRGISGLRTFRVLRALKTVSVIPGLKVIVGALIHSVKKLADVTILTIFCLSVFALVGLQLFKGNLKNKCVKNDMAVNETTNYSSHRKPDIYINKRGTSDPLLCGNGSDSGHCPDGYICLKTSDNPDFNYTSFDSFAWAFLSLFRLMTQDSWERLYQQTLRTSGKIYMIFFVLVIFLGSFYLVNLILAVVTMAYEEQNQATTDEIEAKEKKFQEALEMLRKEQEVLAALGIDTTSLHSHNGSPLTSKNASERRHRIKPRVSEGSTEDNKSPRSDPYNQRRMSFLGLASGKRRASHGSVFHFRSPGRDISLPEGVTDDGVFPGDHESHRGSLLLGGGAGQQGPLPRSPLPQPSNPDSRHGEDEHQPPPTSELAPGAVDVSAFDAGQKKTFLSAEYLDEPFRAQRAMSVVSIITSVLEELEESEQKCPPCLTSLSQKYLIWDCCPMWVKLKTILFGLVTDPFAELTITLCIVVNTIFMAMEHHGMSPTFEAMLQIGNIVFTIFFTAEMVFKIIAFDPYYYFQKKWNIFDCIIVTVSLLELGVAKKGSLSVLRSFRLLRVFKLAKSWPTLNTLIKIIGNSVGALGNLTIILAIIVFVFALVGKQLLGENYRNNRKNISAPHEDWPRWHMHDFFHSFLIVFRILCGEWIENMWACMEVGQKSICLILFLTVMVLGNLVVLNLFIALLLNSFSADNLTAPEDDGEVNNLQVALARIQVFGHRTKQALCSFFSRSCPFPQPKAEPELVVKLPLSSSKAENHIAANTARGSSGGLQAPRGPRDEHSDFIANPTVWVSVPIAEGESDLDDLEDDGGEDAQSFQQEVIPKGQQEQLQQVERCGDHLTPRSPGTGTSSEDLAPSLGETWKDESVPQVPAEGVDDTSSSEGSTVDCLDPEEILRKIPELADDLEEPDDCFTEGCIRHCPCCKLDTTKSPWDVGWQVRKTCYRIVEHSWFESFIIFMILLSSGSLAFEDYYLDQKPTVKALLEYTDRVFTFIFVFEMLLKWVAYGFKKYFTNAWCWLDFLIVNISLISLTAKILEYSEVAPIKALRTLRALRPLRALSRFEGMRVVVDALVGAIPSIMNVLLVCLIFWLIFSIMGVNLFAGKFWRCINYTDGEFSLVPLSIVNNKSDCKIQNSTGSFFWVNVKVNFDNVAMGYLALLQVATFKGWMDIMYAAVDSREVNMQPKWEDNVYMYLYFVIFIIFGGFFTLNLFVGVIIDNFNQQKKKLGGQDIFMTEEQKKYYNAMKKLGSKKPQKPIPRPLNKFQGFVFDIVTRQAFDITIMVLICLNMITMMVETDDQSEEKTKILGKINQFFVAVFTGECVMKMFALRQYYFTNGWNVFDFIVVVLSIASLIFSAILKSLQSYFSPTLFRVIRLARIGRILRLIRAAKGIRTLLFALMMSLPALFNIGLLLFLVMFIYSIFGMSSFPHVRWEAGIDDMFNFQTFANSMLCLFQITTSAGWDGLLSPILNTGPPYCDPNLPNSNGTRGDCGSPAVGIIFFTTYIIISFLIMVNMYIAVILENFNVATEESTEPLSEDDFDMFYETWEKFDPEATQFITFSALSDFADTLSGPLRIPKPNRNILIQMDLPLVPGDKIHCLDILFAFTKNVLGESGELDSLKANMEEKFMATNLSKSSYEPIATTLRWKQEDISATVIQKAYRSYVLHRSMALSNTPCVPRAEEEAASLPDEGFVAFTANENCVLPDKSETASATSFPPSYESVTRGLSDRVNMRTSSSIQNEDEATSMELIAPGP
Briefly: Inhibition of human Nav1.8 stably expressed in SH-SY-5Y cells (membrane potential dye fluorescence assay). Format: cell-based. The conditions noted are these: SH-SY-5Y hNav1.8 cells; FLIPR membrane potential dye; 10 μM pyrethroid, 250 nM TTX; test concentration range 100 μM-0.05 μM; read-out: hNav1.8 IC50. The protocol: Inhibition of Human Nav1.8 stably expressed in SH-SY-5Y Cells
A SH-SY-5Y neuroblastoma cell line stably expressing the human Nav1.8 (hNav1.8) ion channel was constructed. This cell line has been used to develop a medium to high throughput assay for determining the ability of test compounds to inhibit membrane depolarisation mediated via the hNav1.8 channel.
SH-SY-5Y hNav1.8 are grown in adherent monolayer culture using 50:50 Ham's F-12/EMEM tissue culture medium supplemented with 15% (v/v) foetal bovine serum; 2 mM L-glutamine, 1% NEAR and 600 μg·ml^−1 Geneticin sulphate. Cells are removed from the tissue culture flask using trypsin/EDTA and re-plated into black walled, clear bottom 96-well assay plates at 50,000 cells·well^−1 24 hours prior to assay.
On the day of assay the cell assay plates are washed to remove cell culture medium using a sodium free assay buffer (145 mM tetramethyl ammonium chloride; 2 mM calcium chloride; 0.8 mM magnesium chloride hexahydrate; 10 mM HEPES; 10 mM glucose; 5 mM potassium chloride, pH 7.4). Fluorescent membrane potential dye solution (FLIPR™ membrane potential dye, Molecular Devices Corporation), containing 10 μM of a pyrethroid to prevent channel inactivation and 250 nM tetrodotoxin (TTX) to reduce interference from TTX-sensitive sodium channels present in the cell line. Test compound, initially dissolved in dimethyl sulfoxide but further diluted in sodium free buffer, is added to achieve the final test concentration range of 100 μM-0.05 μM.
Cell plates are incubated for 30 minutes at room temperature to allow equilibration of dye and test compound. Plates are then transferred to a fluorescence plate reader for fluorescence measurement using an excitation wavelength of 530 nm whilst measuring fluorescence emission at 565 nm. Baseline fluorescence levels are first determined before the addition of a sodium containing buffer (220 mM sodium chloride; 2 mM calcium chloride; 0.8 mM magnesium chloride hexahydrate; 10 mM HEPES; 10 mM glucose; 5 mM potassium chloride. pH 7.4) to cause membrane depolarisation in those cells where channel block has not been effected (final sodium concentration=72.5 mM). Membrane depolarisation is registered by an increase in fluorescence emission at 565 nm.
The change in fluorescence seen in each test well upon the addition of sodium containing buffer is calculated relative to the baseline fluorescence for that well. This figure is then used for calculating the IC50 for each test compound.
Consider `CC(c1ccccc1C(F)(F)F)N1CC2CC1CN2C(=O)Nc1ccc(C(F)(F)F)cc1` (single isomer, unassigned) [Example 54, 5-[1-(2-Trifluoromethyl-phenyl)-ethyl]-2,5-diaza-bicyclo[2.2.1]heptane-2-carboxylic acid (4-trifluoromethyl-phenyl)-amide], for which the IC50 worked out at 1750 nM. The same measure, in the same setting: next, `O=C(NCc1ccc(Oc2ccc(F)cc2)cc1)N1CC2CC1CN2C1Cc2ccc(F)cc2C1` (stereo not drawn) [Example 146, 5-(5-Fluoro-indan-2-yl)-2,5-diaza-bicyclo[2.2.1]heptane-2-carboxylic acid 4-(4-fluoro-phenoxy)-benzylamide]: 1280 nM.

`Cc1ccc(Oc2ccc(NC(=O)N3CC4CC3CN4C(C)c3ccc(Cl)cc3Cl)cc2)cc1` (stereo not drawn) [Example 123, 5-[1-(2,4-Dichloro-phenyl)-ethyl]-2,5-diaza-bicyclo[2.2.1]heptane-2-carboxylic acid (4-p-tolyloxy-phenyl)-amide]: the IC50 came to 20800 nM. Still for that read-out and setting: for `O=C(Nc1ccc(Oc2ccccc2)cc1)N1CCC2(CCN(Cc3ccccc3)C2)C1` (stereo not drawn) [Example 88, 7-Benzyl-2,7-diaza-spiro[4.4]nonane-2-carboxylic acid (4-phenoxy-phenyl)-amide] the value was 390 nM; for `CC(c1ccc(F)cc1Cl)N1CC2CC1CN2C(=O)c1ccc(Oc2ccc(F)cc2)cc1` (stereo not drawn) [Example 163, {5-[1-(2-Chloro-4-fluoro-phenyl)-ethyl]-2,5-diaza-bicyclo[2.2.1]hept-2-yl}-[4-(4-fluoro-phenoxy)-phenyl]-methanone], 17700 nM.

In the case of `CC(c1ccc(F)cc1)N1CC2CC1CN2C(=O)Nc1cccc(Oc2ccccc2)c1` (stereo not drawn) [Example 52, 5-[1-(4-Fluoro-phenyl)-ethyl]-2,5-diaza-bicyclo[2.2.1]heptane-2-carboxylic acid (3-phenoxy-phenyl)-amide], the IC50 worked out at 900 nM. For `O=C(Nc1ccc(Oc2ccc(F)cc2)cc1)N1CC2CN(Cc3ccccc3)CC2C1` (stereo not drawn) [Example 98, 5-Benzyl-hexahydro-pyrrolo[3,4-c]pyrrole-2-carboxylic acid [4-(4-fluoro-phenoxy)-phenyl]-amide], the IC50 is 170 nM. On the same count and under the same terms, for `CC(c1ccccc1Cl)N1CC2CC1CN2C(=O)N(C)c1ccc(Oc2ccc(F)cc2)cc1` (stereo not drawn) [Example 143, 5-[1-(2-Chloro-phenyl)-ethyl]-2,5-diaza-bicyclo[2.2.1]heptane-2-carboxylic acid [4-(4-fluoro-phenoxy)-phenyl]-methyl-amide] the value was 3210 nM.

As for `O=C(Nc1ccc(Oc2ccc(F)cc2)cc1)N1CC2CC1CN2C1CCc2cc(F)ccc21` (stereo not drawn) [Example 92, 5-(5-Fluoro-indan-1-yl)-2,5-diaza-bicyclo[2.2.1]heptane-2-carboxylic acid [4-(4-fluoro-phenoxy)-phenyl]-amide], the IC50 amounted to 360 nM. The same measure, in the same setting: for `Cc1ccccc1C(C)N1CC2CC1CN2C(=O)Nc1ccc(OCCN2CCOCC2)cc1` (stereo not drawn) [Example 44, 5-(1-o-Tolyl-ethyl)-2,5-diaza-bicyclo[2.2.1]heptane-2-carboxylic acid [4-(2-morpholin-4-yl-ethoxy)-phenyl]-amide] the value was 26800 nM; for `O=C(Nc1ccc(Oc2ccc(F)cc2)cc1)N1CCC2(CCN(C3Cc4ccccc4C3)C2)C1` (stereo not drawn) [Example 104, 7-Indan-2-yl-2,7-diaza-spiro[4.4]nonane-2-carboxylic acid [4-(4-fluoro-phenoxy)-phenyl]-amide], 430 nM. Same read-out and setting: for `CC(c1ccc(Cl)cc1Cl)N1CC2CC1CN2C(=O)Nc1ccc(Oc2ccc(F)cc2)cc1` (stereo not drawn) [Example 119, 5-[1-(2,4-Dichloro-phenyl)-ethyl]-2,5-diaza-bicyclo[2.2.1]heptane-2-carboxylic acid [4-(4-fluoro-phenoxy)-phenyl]-amide] the value was 20900 nM. The same measure, in the same setting: for `C=CCOc1ccc(NC(=O)N2CC3CC2CN3C(C)c2ccccc2C)cc1` (stereo not drawn) [Example 20, 5-(1-o-Tolyl-ethyl)-2,5-diaza-bicyclo[2.2.1]heptane-2-carboxylic acid (4-allyloxy-phenyl)-amide] the value was 3420 nM; for `CC(Cc1ccccc1F)N1CC2CC1CN2C(=O)Nc1ccc(C(F)(F)F)cc1` (stereo not drawn) [Example 79, 5-[2-(2-Fluoro-phenyl)-1-methyl-ethyl]-2,5-diaza-bicyclo[2.2.1]heptane-2-carboxylic acid (4-trifluoromethyl-phenyl)-amide], 780 nM; for `CC(c1ccccc1Cl)N1CC2CC1CN2C(=O)Nc1ccc(Oc2ccc(Cl)cc2)cc1` (stereo not drawn) [Example 129, 5-[1-(2-Chloro-phenyl)-ethyl]-2,5-diaza-bicyclo[2.2.1]heptane-2-carboxylic acid [4-(4-chloro-phenoxy)-phenyl]-amide], 3800 nM. As for `Cc1ccccc1C(C)N1CC2CC1CN2C(=O)Nc1ccc(-c2ccccc2)cc1` (stereo not drawn) [Example 38, 5-(1-o-Tolyl-ethyl)-2,5-diaza-bicyclo[2.2.1]heptane-2-carboxylic acid biphenyl-4-ylamide], the IC50 was found to be 1440 nM. With `Cc1ccccc1C(C)N1CC2CC1CN2C(=O)Nc1ccc(OC2CCN(Cc3ccccc3)CC2)cc1` (stereo not drawn) [Example 40, 5-(1-o-Tolyl-ethyl)-2,5-diaza-bicyclo[2.2.1]heptane-2-carboxylic acid [4-(1-benzyl-piperidin-4-yloxy)-phenyl]-amide], the IC50 is 2010 nM. As for `CC(c1ccccc1Cl)N1CC2CC1CN2C(=O)Nc1ccc(Oc2ccc(F)cc2)cc1` (stereo not drawn) [Example 96, 5-[1-(2-Chloro-phenyl)-ethyl]-2,5-diaza-bicyclo[2.2.1]heptane-2-carboxylic acid [4-(4-fluoro-phenoxy)-phenyl]-amide methanesulfonate salt], the IC50 came to 370 nM.

In the case of `Cc1ccccc1C(C)N1CC2CC1CN2C(=O)Nc1ccc(OCCc2ccccn2)cc1` (stereo not drawn) [Example 45, 5-(1-o-Tolyl-ethyl)-2,5-diaza-bicyclo[2.2.1]heptane-2-carboxylic acid [4-(2-pyridin-2-yl-ethoxy)-phenyl]-amide], the IC50 is 3270 nM.

On to `CC(Cc1ccc(Cl)cc1)N1CC2CC1CN2C(=O)Nc1ccc(C(F)(F)F)cc1` (stereo not drawn) [Example 83, 5-[2-(4-Chloro-phenyl)-1-methyl-ethyl]-2,5-diaza-bicyclo[2.2.1]heptane-2-carboxylic acid (4-trifluoromethyl-phenyl)-amide], for which the half-inhibitory concentration (IC50) was determined as 680 nM.

As to `O=C(Nc1ccc(C(F)(F)F)cc1)N1CC2CC1CN2C1Cc2ccc(F)cc2C1` (stereo not drawn) [Example 130, 5-(5-Fluoro-indan-2-yl)-2,5-diaza-bicyclo[2.2.1]heptane-2-carboxylic acid (4-trifluoromethyl-phenyl)-amide], the IC50 is 3610 nM. On the same count and under the same terms, next, `CC(c1ccccc1Cl)N1CC2CC1CN2C(=O)Nc1ccc(Oc2ccccc2F)cc1` (stereo not drawn) [Example 109, 5-[1-(2-Chloro-phenyl)-ethyl]-2,5-diaza-bicyclo[2.2.1]heptane-2-carboxylic acid [4-(2-fluoro-phenoxy)-phenyl]-amide]: 680 nM; `Cc1ccccc1C(C)N1CC2CC1CN2C(=O)Nc1ccc(Oc2ccccc2)cc1` (stereo not drawn) [Example 32, 5-(1-o-Tolyl-ethyl)-2,5-diaza-bicyclo[2.2.1]heptane-2-carboxylic acid (4-phenoxy-phenyl)-amide]: 710 nM; `CC(c1ccccc1C(F)(F)F)N1CC2CC1CN2C(=O)Nc1cccc(Oc2ccccc2)c1` (stereo not drawn) [Example 63, 5-[1-(2-Trifluoromethyl-phenyl)-ethyl]-2,5-diaza-bicyclo[2.2.1]heptane-2-carboxylic acid (3-phenoxy-phenyl)-amide]: 6100 nM. `CC(c1ccccc1Cl)N1CC2CC1CN2C(=O)c1ccc(Oc2ccc(F)cc2)c(F)c1` (stereo not drawn) [Example 178, {5-[1-(2-Chloro-phenyl)-ethyl]-2,5-diaza-bicyclo[2.2.1]hept-2-yl}-[3-fluoro-4-(4-fluoro-phenoxy)-phenyl]-methanone methanesulfonate salt]: the IC50 is 610 nM.

The assay is the same for the next values; noted with them: hNav1.8 IC50, SH-SY-5Y hNav1.8 cells; FLIPR membrane potential dye; 10 μM pyrethroid, 250 nM TTX; test concentration range 100 μM-0.05 μM.
In turn, `O=C(Cc1ccc(C(F)(F)F)cc1)N1CC2CC1CN2C1CCc2ccccc2C1` (stereo not drawn) [Example 147, 1-[5-(1,2,3,4-Tetrahydro-naphthalen-2-yl)-2,5-diaza-bicyclo[2.2.1]hept-2-yl]-2-(4-trifluoromethyl-phenyl)-ethanone] registered an IC50 of 3100 nM. Same read-out and setting: next, `O=C(Cc1ccc(Oc2ccc(F)cc2)cc1)N1CC2CC1CN2C1CCc2cc(F)ccc2C1` (stereo not drawn) [Example 144, 2-[4-(4-Fluoro-phenoxy)-phenyl]-1-[5-(6-fluoro-1,2,3,4-tetrahydro-naphthalen-2-yl)-2,5-diaza-bicyclo[2.2.1]hept-2-yl]-ethanone]: 1600 nM.

The values are drawn from patent US20100204224A1, “AZACYCLIC COMPOUNDS AS INHIBITORS OF SENSORY NEURONE SPECIFIC SODIUM CHANNELS” (priority 2005, published 2010).
